Results on eight compounds are retold here after patent publication US20240124432A1, “HERBICIDAL COMPOUNDS” (SYNGENTA CROP PROTECTION AG, priority 2020, published 2024).

Common to all, as to type: in vivo
In test [1] the test system is ECHCG. Kind of test: Post-emergence biological efficacy. The settings on record: Echinochloa crus-galli, 312 h, evaluated after 13 days, read-out: damage to plant (100=total damage to plant; 0=no damage to plant). The method, boiled down:
(§1)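 Damage was rated 13 days after treatment, from 0 (none) to 100 (total). Test compounds, formulated in IF50 and diluted with 0.2% Genapol XO80 to final dose, were sprayed on glasshouse plants raised for 14 days from seed.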

Test [2] has as its system IPOHE. Kind of test: Post-emergence biological efficacy. The settings on record: Ipomoea hederacea, 312 h, evaluated after 13 days, read-out: damage to plant (100=total damage to plant; 0=no damage to plant). The gist of the method: as §1
Test [3] relates to LOLPE. Description: Post-emergence biological efficacy. The conditions noted are these: Lolium perenne, 312 h, evaluated after 13 days, read-out: damage to plant (100=total damage to plant; 0=no damage to plant). The method, boiled down:
as §1

For test [4], the system named is AMAPA. Description: Post-emergence biological efficacy. The conditions noted are these: Amaranthus palmeri, 312 h, evaluated after 13 days, read-out: damage to plant (100=total damage to plant; 0=no damage to plant). The gist of the method:
as §1

In a further test the test system is ELEIN. Description: Post-emergence biological efficacy. The settings on record: 312 h, evaluated after 13 days, read-out: damage to plant (100=total damage to plant; 0=no damage to plant). The gist of the method:
as §1

The next test relates to DIGSA. Description: Post-emergence biological efficacy. The settings on record: Digitaria sanguinalis, 312 h, evaluated after 13 days, read-out: damage to plant (100=total damage to plant; 0=no damage to plant). The gist of the method: as §1
Test [5] relates to EPHHL. Description: Post-emergence biological efficacy. The conditions noted are these: Euphorbia heterophylla, 312 h, evaluated after 13 days, read-out: damage to plant (100=total damage to plant; 0=no damage to plant). The gist of the method: as §1
The next test deals with CHEAL. Kind of test: Post-emergence biological efficacy. The settings on record: Chenopodium album, 312 h, evaluated after 13 days, read-out: damage to plant (100=total damage to plant; 0=no damage to plant). The method, boiled down:
as §1

The subject of test [6] is SETFA. Description: Post-emergence biological efficacy. The settings on record: Setaria faberi, 312 h, evaluated after 13 days, read-out: damage to plant (100=total damage to plant; 0=no damage to plant). The gist of the method: as §1
Test [7] has as its system ECHCG. Kind of test: Pre-emergence biological efficacy. The conditions noted are these: Echinochloa crus-galli, 312 h, evaluated after 13 days, read-out: damage to plant (100=total damage to plant; 0=no damage to plant). The gist of the method:
(§2)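 Scoring: visual plant damage at 13 days after spraying, 100 = total damage, 0 = none. Pots were sprayed 1 day post-sowing with an aqueous dilution (0.2% Genapol XO80) of an IF50/acetone formulation; glasshouse 24/18 °C, 15 h light, 50% humidity, watered twice daily.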

The subject of test [8] is IPOHE. Description: Pre-emergence biological efficacy. The settings on record: Ipomoea hederacea, 312 h, evaluated after 13 days, read-out: damage to plant (100=total damage to plant; 0=no damage to plant). The method, boiled down: as §2
For test [9], the system named is LOLPE. Description: Pre-emergence biological efficacy. The settings on record: Lolium perenne, 312 h, evaluated after 13 days, read-out: damage to plant (100=total damage to plant; 0=no damage to plant). The gist of the method:
as §2

Test [10] concerns AMAPA. Kind of test: Pre-emergence biological efficacy. The settings on record: Amaranthus palmeri, 312 h, evaluated after 13 days, read-out: damage to plant (100=total damage to plant; 0=no damage to plant). The method, boiled down:
as §2

For test [11], the system named is EPHHL. Description: Pre-emergence biological efficacy. The settings on record: Euphorbia heterophylla, 312 h, evaluated after 13 days, read-out: damage to plant (100=total damage to plant; 0=no damage to plant). The method, boiled down: as §2
Test [12] relates to SETFA. Kind of test: Pre-emergence biological efficacy. The settings on record: Setaria faberi, 312 h, evaluated after 13 days, read-out: damage to plant (100=total damage to plant; 0=no damage to plant). The method, boiled down:
as §2

For the compound `CCOC(=O)C1(C)CC(c2cc(-c3cccnc3F)c(F)cc2Cl)=NO1` (stereo not drawn) [Compound 1-211, Ethyl 3-[2-chloro-4-fluoro-5-(2-fluoro-3-pyridyl)phenyl]-5-methyl-4H-isoxazole-5-carboxylate], the pest or weed control at 250 g/ha in the test with ECHCG [1] was found to be 20%; with IPOHE [2], 50%; in the test on LOLPE [3], 0%; with AMAPA [4] it was 100%; with ELEIN, 20%; in the test with DIGSA it was 10%. Besides, the pest or weed control at 250 g/ha in the test on EPHHL [5] came to 30%; in the test with CHEAL, 90%; in the test on SETFA [6] it was 20%; in the test on ECHCG [7] it was 0%; in the test on IPOHE [8] it was 0%; with LOLPE [9], 0%. In addition, the pest or weed control at 250 g/ha in the test on AMAPA [10], with EPHHL [11] and in the test on SETFA [12] was 0% each time.

Consider `CCOC(=O)C1(C)CC(c2cc(-c3cc(C)cnc3F)c(F)cc2Cl)=NO1` (stereo not drawn) [Compound 1-223, Ethyl 3-[2-chloro-4-fluoro-5-(2-fluoro-5-methyl-3-pyridyl)phenyl]-5-methyl-4H-isoxazole-5-carboxylate], for which the pest or weed control at 250 g/ha with ECHCG [1] came out at 50%; in the test with IPOHE [2], 100%; with LOLPE [3], 20%; in the test with AMAPA [4], 100%; with ELEIN, 10%; in the test on DIGSA, 30%. For the same compound, the pest or weed control at 250 g/ha in the test on EPHHL [5] stood at 70%; with CHEAL, 80%; in the test with SETFA [6], 80%; with ECHCG [7], 0%; with IPOHE [8] it was 0%; in the test on LOLPE [9], 0%. In addition, the pest or weed control at 250 g/ha in the test on AMAPA [10], in the test with EPHHL [11] and in the test on SETFA [12] was 0% in each case.

As to `CCOC(=O)C1(C)CC(c2cc(-c3cc(C(F)(F)F)cnc3F)c(F)cc2Cl)=NO1` (stereo not drawn) [Compound 1-235, Ethyl 3-[2-chloro-4-fluoro-5-[2-fluoro-5-(trifluoromethyl)-3-pyridyl]phenyl]-5-methyl-4H-isoxazole-5-carboxylate], the pest or weed control at 250 g/ha in the test on ECHCG [1] was 60%; in the test with IPOHE [2], 100%; in the test on LOLPE [3], 60%; in the test on AMAPA [4], 100%; in the test on ELEIN it was 100%; in the test on DIGSA it was 70%. Moreover, the pest or weed control at 250 g/ha in the test with EPHHL [5] turned out to be 100%; with CHEAL, 100%; with SETFA [6], 100%; in the test on ECHCG [7], 0%; in the test with IPOHE [8], 60%; in the test with LOLPE [9], 0%. Further, the pest or weed control at 250 g/ha in the test on AMAPA [10] is 100%; in the test with EPHHL [11], 50%; in the test on SETFA [12], 0%.

For the compound `CCOC(=O)C1(C)CC(c2cc(-c3cccnc3)c(F)cc2Cl)=NO1` (stereo not drawn) [Compound 1-247, Ethyl 3-[2-chloro-4-fluoro-5-(3-pyridyl)phenyl]-5-methyl-4H-isoxazole-5-carboxylate], the pest or weed control at 250 g/ha in the test with ECHCG [1] is 0%; in the test with IPOHE [2], 0%; in the test on LOLPE [3], 0%; in the test with AMAPA [4], 0%; with ELEIN, 10%; in the test with DIGSA, 0%. Further, the pest or weed control at 250 g/ha worked out at 10% in the test on EPHHL [5]; 0% in the test on CHEAL; 0% in the test with SETFA [6]; 0% in the test on ECHCG [7]; 0% in the test on IPOHE [8]; 0% with LOLPE [9]. The pest or weed control at 250 g/ha in the test with AMAPA [10] was 60%; in the test on EPHHL [11], 0%; in the test with SETFA [12], 0%.

On to `CCOC(=O)C1(C)CC(c2cc(-c3cnccc3OC)c(F)cc2Cl)=NO1` (stereo not drawn) [Compound 1-259, Ethyl 3-[2-chloro-4-fluoro-5-(4-methoxy-3-pyridyl)phenyl]-5-methyl-4H-isoxazole-5-carboxylate], for which the pest or weed control at 250 g/ha with ECHCG [1] turned out to be 20%; in the test on IPOHE [2] it was 30%; in the test on LOLPE [3], 0%; with AMAPA [4], 60%; in the test on ELEIN, 20%; with DIGSA it was 40%. Also, the pest or weed control at 250 g/ha in the test with EPHHL [5] worked out at 20%; with CHEAL it was 80%; in the test with SETFA [6], 30%; in the test on ECHCG [7], 0%; in the test on IPOHE [8], 0%; with LOLPE [9], 0%. Also, the pest or weed control at 250 g/ha in the test with AMAPA [10], in the test on EPHHL [11] and in the test on SETFA [12] was 0% in each case.

In the case of `CCOC(=O)C1(C)CC(c2cc(-c3cncc(Cl)c3)c(F)cc2Cl)=NO1` (stereo not drawn) [Compound 1-271, Ethyl 3-[2-chloro-5-(5-chloro-3-pyridyl)-4-fluoro-phenyl]-5-methyl-4H-isoxazole-5-carboxylate], the pest or weed control at 250 g/ha in the test with ECHCG [1] turned out to be 20%; in the test with IPOHE [2] it was 100%; in the test on LOLPE [3], 0%; with AMAPA [4] it was 90%; in the test on ELEIN, 20%; in the test on DIGSA, 20%. In addition, the pest or weed control at 250 g/ha amounted to 40% with EPHHL [5]; 70% in the test with CHEAL; 50% with SETFA [6]; 0% in the test on ECHCG [7]; 0% with IPOHE [8]; 0% in the test with LOLPE [9]. Moreover, the pest or weed control at 250 g/ha in the test with AMAPA [10], with EPHHL [11] and with SETFA [12] was 0% in each case.

As to `CCOC(=O)C1(C)CC(c2cc(-c3ccc(C)nc3)c(F)cc2Cl)=NO1` (stereo not drawn) [Compound 1-283, Ethyl 3-[2-chloro-4-fluoro-5-(6-methyl-3-pyridyl)phenyl]-5-methyl-4H-isoxazole-5-carboxylate], the pest or weed control at 250 g/ha was determined as 10% in the test with ECHCG [1]; 40% with IPOHE [2]; 0% in the test on LOLPE [3]; 70% in the test with AMAPA [4]; 0% in the test with ELEIN; 20% with DIGSA. The pest or weed control at 250 g/ha in the test with EPHHL [5] came to 60%; in the test with CHEAL it was 30%; with SETFA [6], 20%; in the test on ECHCG [7], 0%; with IPOHE [8] it was 0%; with LOLPE [9], 0%. Moreover, the pest or weed control at 250 g/ha worked out at 0% with AMAPA [10], 20% with EPHHL [11] and 0% in the test on SETFA [12].

`CCOC(=O)C1(C)CC(c2cc(-c3ccnc(F)c3)c(F)cc2Cl)=NO1` (stereo not drawn) [Compound 1-295, Ethyl 3-[2-chloro-4-fluoro-5-(2-fluoro-4-pyridyl)phenyl]-5-methyl-4H-isoxazole-5-carboxylate]: the pest or weed control at 250 g/ha in the test with ECHCG [1] is 10%; in the test with IPOHE [2] it was 50%; in the test with LOLPE [3], 0%; with AMAPA [4], 90%; in the test on ELEIN it was 10%; in the test on DIGSA, 10%. Further, the pest or weed control at 250 g/ha in the test with EPHHL [5] turned out to be 50%; in the test on CHEAL it was 70%; with SETFA [6] it was 10%; in the test on ECHCG [7], 0%; with IPOHE [8], 0%; with LOLPE [9], 0%. Also, the pest or weed control at 250 g/ha with AMAPA [10], in the test with EPHHL [11] and with SETFA [12] was 0% throughout.
